Molecular target: T1, human histamine H3 receptor (Homo sapiens, UniProt Q9Y5N1)
T1 construct: host or cells: cells expressing the human H3 receptor
Assay: H3 GTPγS assay (SPA method), histamine H3 in vitro assay
Assay type: biochemical
Details: GTPγ[35S] binding to membranes of cells expressing human H3; antagonist mode with R-γ-Me-Histamine at EC80 (30 nM); in one embodiment HCl salts tested; read-out: Potency (functional potency as indicated by IC50)
Procedure: H3 GTPγS assay (SPA method) was performed at EuroScreen (Belgium, ES-392-C) using conventional methods. Briefly, cells expressing the human histamine H3 receptor were homogenized in 15 mM Tris-HCl pH 7.5, 2 mM MgCl2, 0.3 mM EDTA, and 1 mM EGTA. Membranes were washed twice in the above tris buffer, collected by centrifugation (40,000×g, 25 min), and re-suspended in 75 mM Tris-HCl pH 7.5, 12.5 mM MgCl2, 0.3 mM EDTA, 1 mM EGTA, and 250 mM sucrose. Membranes were frozen in liquid nitrogen until use. On the day of the assay, membranes were thawed and diluted in assay buffer (20 mM HEPES pH 7.4, 100 mM NaCl, 10 μg/ml saponin, 1 mM MgCl2) to give 500 μg/ml and mixed (v/v) with GDP in assay buffer for a final GDP concentration of 10 μM and incubated on ice for at least 15 min. PVT-WGA beads (Amersham, RPNQ001) were diluted in assay buffer at 50 mg/mL and mixed with GTPγ[^35S] (Amersham, SJ1308) diluted in assay buffer to give ˜25,000 dpm/10 μL and mixed vol/vol just before the start of the reaction. The reaction was started by adding 50 μL of test compound, 20 μL of the membranes:GDP mix, 10 μL of buffer, and 20 μL of the GTPγ[^35S]:beads mix in a 96 well plate Optiplate™ (PerkinElmer, 6005299) covered with topseal (TopCount™, PerkinElmer), mixed with an orbital shaker for 2 min, incubated for 1 hour at room temperature, centrifuged for 10 min at 2000 rpm, incubated for 1 h at room temperature, and counted for 1 min in a TopCount™ reader (PerkinElmer). Dose response curves and IC50 values (concentration to inhibit the reaction by 50%) were calculated by nonlinear regression using XLfit software (IDBS).
For antagonists testing, 10 μL of a reference agonist (R-γ-Me-Histamine) instead of 10 μL buffer was added at a concentration corresponding to the EC80 (30 nM). Control ligands were R-γ-Me-Histamine (Tocris, 0569), Imetit (Sigma, I-135), Thioperamide (Tocris, 0644), and Clobenpropit (Tocris, 0754) diluted in assay buffer.
The compounds provided herein were tested in the histamine H3 in vitro assay. In one embodiment, the respective HCl salts of the compounds provided herein were prepared using standard chemical procedures and tested in the histamine H3 in vitro assay.

T1 sequence (Q9Y5N1 whole entry): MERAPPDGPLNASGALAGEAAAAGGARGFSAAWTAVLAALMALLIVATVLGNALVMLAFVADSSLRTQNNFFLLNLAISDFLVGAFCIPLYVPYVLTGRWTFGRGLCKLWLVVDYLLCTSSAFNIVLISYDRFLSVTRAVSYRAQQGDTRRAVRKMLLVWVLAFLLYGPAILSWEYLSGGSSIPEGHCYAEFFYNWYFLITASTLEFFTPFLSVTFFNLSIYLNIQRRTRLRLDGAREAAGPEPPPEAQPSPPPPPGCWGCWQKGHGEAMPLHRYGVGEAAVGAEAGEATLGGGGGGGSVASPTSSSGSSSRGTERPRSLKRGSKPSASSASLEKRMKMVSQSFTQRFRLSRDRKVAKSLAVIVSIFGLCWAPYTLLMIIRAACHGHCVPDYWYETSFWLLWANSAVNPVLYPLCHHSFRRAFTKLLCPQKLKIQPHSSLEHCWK

IC50	SMILES
≤ 10 nM	CC1CCCC1N1CCc2nc3cc(-c4ccc(C#N)cc4)ccc3n2CC1 (racemic) [Compound 35, rac-cis/trans-4-(3-(2-methylcyclopentyl)-2,3,4,5-tetrahydro-1H-[1,4]diazepino[1,7-a]benzimidazol-9-yl)benzonitrile]
≤ 100 nM	c1ncn(-c2ccc3c(c2)nc2n3CCN(C3CCC3)CC2)n1 [Compound 152, 3-cyclobutyl-8-(1H-1,2,4-triazol-1-yl)-2,3,4,5-tetrahydro-1H-benzo[4,5]imidazo[1,2-d][1,4]diazepine]
≤ 1000 nM	N#Cc1ccc(-c2ccc3nc4n(c3c2)CCN(C2CCC2)CC4)cc1 [Compound 41]
≤ 100 nM	c1cc2c(cc1-n1cnnn1)nc1n2CCN(C2CCC2)CC1 [Compound 154, 3-cyclobutyl-8-(1H-tetrazol-1-yl)-2,3,4,5-tetrahydro-1H-benzo[4,5]imidazo[1,2-d][1,4]diazepine]
≤ 10 nM	FC1CCN(Cc2ccc3c(c2)nc2n3CCN(C3CCC3)CC2)CC1 [Compound 159, 3-cyclobutyl-8-((4-fluoropiperidin-1-yl)methyl)-2,3,4,5-tetrahydro-1H-benzo[4,5]imidazo[1,2-d][1,4]diazepine]
≤ 100 nM	Cc1nnnn1-c1ccc2c(c1)nc1n2CCN(C2CCC2)CC1 [Compound 156, 3-cyclobutyl-8-(5-methyl-1H-tetrazol-1-yl)-2,3,4,5-tetrahydro-1H-benzo[4,5]imidazo[1,2-d][1,4]diazepine]
≤ 10 nM	Fc1ccc(N2CCN(c3ccc4c(c3)nc3n4CCN(C4CCC4)CC3)CC2)cc1 [Compound 231, 3-cyclobutyl-8-(4-(4-fluorophenyl)piperazin-1-yl)-2,3,4,5-tetrahydro-1H-benzo[4,5]imidazo[1,2-d][1,4]diazepine]
≤ 10 nM	c1cc2c(cc1C1CCCN(C3CCC3)C1)nc1n2CCN(C2CCC2)CC1 (stereo not shown) [Compound 128, 3-cyclobutyl-8-(1-cyclobutylpiperidin-3-yl)-2,3,4,5-tetrahydro-1H-benzo[4,5]imidazo[1,2-d][1,4]diazepine]
≤ 10 nM	N#Cc1ccc(COc2ccc3c(c2)nc2n3CCN(C3CCC3)CC2)cc1 [Compound 53]
≤ 100 nM	c1ccc2c(c1)cnn2-c1ccc2c(c1)nc1n2CCN(C2CCC2)CC1 [Compound 69]
≤ 100 nM	c1cnc(Cc2ccc3c(c2)nc2n3CCN(C3CCC3)CC2)cn1 [Compound 122, 3-cyclobutyl-8-(pyrazin-2-ylmethyl)-2,3,4,5-tetrahydro-1H-benzo[4,5]imidazo[1,2-d][1,4]diazepine]
≤ 100 nM	c1cnc2c(c1)ccn2-c1ccc2c(c1)nc1n2CCN(C2CCC2)CC1 [Compound 70, 3-cyclobutyl-9-(1H-pyrrolo[2,3-b]pyridin-1-yl)-2,3,4,5-tetrahydro-1H-[1,4]diazepino[1,7-a]benzimidazole]
≤ 10 nM	N#Cc1ccc(C(=O)N2CCN(c3ccc4c(c3)nc3n4CCN(C4CCC4)CC3)CC2)cc1 [Compound 168, 4-(4-(3-cyclobutyl-2,3,4,5-tetrahydro-1H-benzo[4,5]imidazo[1,2-d][1,4]diazepin-8-yl)piperazine-1-carbonyl)benzonitrile]
≤ 100 nM	c1cnc(N2CCCC(c3ccc4c(c3)nc3n4CCN(C4CCC4)CC3)C2)nc1 (stereo not shown) [Compound 130, 3-cyclobutyl-8-(1-(pyrimidin-2-yl)piperidin-3-yl)-2,3,4,5-tetrahydro-1H-benzo[4,5]imidazo[1,2-d][1,4]diazepine]
≤ 10 nM	FC1(F)CCN(Cc2ccc3c(c2)nc2n3CCN(C3CCC3)CC2)CC1 [Compound 160, 3-cyclobutyl-8-((4,4-difluoropiperidin-1-yl)methyl)-2,3,4,5-tetrahydro-1H-benzo[4,5]imidazo[1,2-d][1,4]diazepine]
≤ 100 nM	O=C(C1CCC1)N1CCc2cc3nc4n(c3cc2C1)CCN(C1CCC1)CC4 [Compound 191, cyclobutyl(9-cyclobutyl-3,4,8,9,10,11-hexahydro-1H-[1,4]diazepino[1′,7′:1,2]imidazo[4,5-g]isoquinolin-2 (7H)-yl)methanone]
≤ 100 nM	O=C(c1ccc2c(c1)nc1n2CCN(C2CCC2)CC1)N1CCCC1 [Compound 60]

IC50	SMILES
≤ 100 nM	c1cc2c(cc1N1CCCC1)nc1n2CCN(C2CCC2)CC1 [Compound 226, 3-cyclobutyl-8-(pyrrolidin-1-yl)-2,3,4,5-tetrahydro-1H-benzo[4,5]imidazo[1,2-d][1,4]diazepine]
≤ 10 nM	c1cnc2[nH]cc(-c3ccc4c(c3)nc3n4CCN(C4CCC4)CC3)c2c1 [Compound 31]
≤ 10 nM	c1ccc(CN2Cc3cc4nc5n(c4cc3C2)CCN(C2CCC2)CC5)cc1 [Compound 144, 2-benzyl-8-cyclobutyl-1,2,3,6,7,8,9,10-octahydro-[1,4]diazepino[1′,7′:1,2]imidazo[4,5-f]isoindole]
≤ 10 nM	c1cc2c(cc1N1CCCCC1)nc1n2CCN(C2CCC2)CC1 [Compound 175, 3-cyclobutyl-8-(piperidin-1-yl)-2,3,4,5-tetrahydro-1H-benzo[4,5]imidazo[1,2-d][1,4]diazepine]
≤ 10 nM	c1cc2nc(-c3ccc4c(c3)nc3n4CCN(C4CCC4)CC3)ccc2[nH]1 [Compound 197, 3-cyclobutyl-8-(1H-pyrrolo[3,2-b]pyridin-5-yl)-2,3,4,5-tetrahydro-1H-benzo[4,5]imidazo[1,2-d][1,4]diazepine]
≤ 10 nM	O=C(C1CC1)N1CCN(c2ccc3c(c2)nc2n3CCN(C3CCC3)CC2)CC1 [Compound 170, (4-(3-cyclobutyl-2,3,4,5-tetrahydro-1H-benzo[4,5]imidazo[1,2-d][1,4]diazepin-8-yl)piperazin-1-yl)(cyclopropyl)methanone]
≤ 100 nM	O=C(c1ccc2c(c1)nc1n2CCN(C2CCC2)CC1)c1cnccn1 [Compound 121, (3-cyclobutyl-2,3,4,5-tetrahydro-1H-benzo[4,5]imidazo[1,2-d][1,4]diazepin-8-yl)(pyrazin-2-yl)methanone]
≤ 10 nM	c1ncc(-c2ccc3c(c2)nc2n3CCN(C3CCC3)CC2)cn1 [Compound 126, 3-cyclobutyl-8-(pyrimidin-5-yl)-2,3,4,5-tetrahydro-1H-benzo[4,5]imidazo[1,2-d][1,4]diazepine]
≤ 100 nM	c1ccc(-c2ccc3c(c2)nc2n3CCN(C3CCC3)CC2)nc1 [Compound 114, 3-cyclobutyl-9-(pyridin-2-yl)-2,3,4,5-tetrahydro-1H-[1,4]diazepino[1,7-a]benzimidazole]
≤ 10 nM	CN1CCN(c2ccc3c(c2)nc2n3CCN(C3CCC3)CC2)CC1 [Compound 73, 3-cyclobutyl-9-(4-methylpiperazin-1-yl)-2,3,4,5-tetrahydro-1H-[1,4]diazepino[1,7-a]benzimidazole]
≤ 100 nM	CC(C)N1CCc2nc3cc(-c4ccc(C#N)cc4)ccc3n2CC1 [Compound 32, 4-(3-isopropyl-2,3,4,5-tetrahydro-1H-[1,4]diazepino[1,7-a]benzimidazol-9-yl)benzonitrile]
≤ 100 nM	CN1CCN(c2cccc(-c3ccc4c(c3)nc3n4CCN(C4CCC4)CC3)n2)CC1 [Compound 136, 3-cyclobutyl-8-(6-(4-methylpiperazin-1-yl)pyridin-2-yl)-2,3,4,5-tetrahydro-1H-benzo[4,5]imidazo[1,2-d][1,4]diazepine]
≤ 100 nM	O=c1[nH]c2cc(-c3ccc4c(c3)nc3n4CCN(C4CCC4)CC3)ccc2o1 [Compound 215, 5-(3-cyclobutyl-2,3,4,5-tetrahydro-1H-benzo[4,5]imidazo[1,2-d][1,4]diazepin-8-yl)benzo[d]oxazol-2(3H)-one]
≥ 1000 nM	CC1CCC(N2CCc3nc4cc(-c5ccc(C#N)cc5)ccc4n3CC2)CC1 (mixture of isomers) [Compound 37, cis/trans-4-(3-(4-methylcyclohexyl)-2,3,4,5-tetrahydro-1H-[1,4]diazepino[1,7-a]benzimidazol-9-yl)benzonitrile]
≤ 1000 nM	N#Cc1ccc(OCc2ccc3nc4n(c3c2)CCN(C2CCC2)CC4)nc1 [Compound 112, 6-((3-cyclobutyl-2,3,4,5-tetrahydro-1H-[1,4]diazepino[1,7-a]benzimidazol-8-yl)methoxy)nicotino-nitrile]
≥ 1000 nM	N#Cc1ccc2nc3n(c2c1)CCN(C1CCC1)CC3 [Compound 82]
≤ 100 nM	c1ccc(C2CCN(c3ccc4c(c3)nc3n4CCN(C4CCC4)CC3)CC2)cc1 [Compound 227, 3-cyclobutyl-8-(4-phenylpiperidin-1-yl)-2,3,4,5-tetrahydro-1H-benzo[4,5]imidazo[1,2-d][1,4]diazepine]

— patent US8404670B2 (Sunovion Pharmaceuticals Inc., priority 2009, dated 2013)
